Measurements published in ChEMBL document CHEMBL1201862, “PubChem BioAssay data set” (2004).
One block for each compound: values may come before it. Activity calls are given as the source filed them.

Key:
Type in all cases: functional
[1] = nonselective inhibitors of cellular cAMP signaling, dose response, counter-screen for MC4R biased antagonist project, cell-based, TR-FRET cAMP detection (AID 602305);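 note: U2OS cells stimulated with forskolin near its EC80 as the cAMP inducer; potency is for inhibition of forskolin-stimulated cAMP signaling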
Melanocortin receptor 4 = Melanocortin receptor 4 (Homo sapiens, UniProt P32245); assay: MC4R antagonist potency on cAMP, dose response, cell-based, TR-FRET, biased antagonists (AID 602298);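 note: antagonist potency against agonist-stimulated cAMP production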
Sequence of Melanocortin receptor 4 (P32245 whole entry): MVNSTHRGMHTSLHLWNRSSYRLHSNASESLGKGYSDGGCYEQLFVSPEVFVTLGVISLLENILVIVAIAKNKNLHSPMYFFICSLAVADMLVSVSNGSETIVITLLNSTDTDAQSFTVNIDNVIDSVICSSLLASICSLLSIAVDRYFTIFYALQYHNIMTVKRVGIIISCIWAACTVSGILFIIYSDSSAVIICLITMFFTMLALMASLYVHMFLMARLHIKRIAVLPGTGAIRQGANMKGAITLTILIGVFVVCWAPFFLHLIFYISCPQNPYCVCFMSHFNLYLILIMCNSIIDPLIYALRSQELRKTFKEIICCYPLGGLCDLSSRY

[2] = target: T1, Sentrin-specific protease 6 (Homo sapiens, UniProt Q9GZR1); assay: SAR Analysis of small molecule inhibitors of Sentrin-specific protease 6 (SENP6) using a Luminescent assay. [Related pubchem assays (depositor defined):AID2582, AID2599]
T1 sequence (Q9GZR1 whole entry): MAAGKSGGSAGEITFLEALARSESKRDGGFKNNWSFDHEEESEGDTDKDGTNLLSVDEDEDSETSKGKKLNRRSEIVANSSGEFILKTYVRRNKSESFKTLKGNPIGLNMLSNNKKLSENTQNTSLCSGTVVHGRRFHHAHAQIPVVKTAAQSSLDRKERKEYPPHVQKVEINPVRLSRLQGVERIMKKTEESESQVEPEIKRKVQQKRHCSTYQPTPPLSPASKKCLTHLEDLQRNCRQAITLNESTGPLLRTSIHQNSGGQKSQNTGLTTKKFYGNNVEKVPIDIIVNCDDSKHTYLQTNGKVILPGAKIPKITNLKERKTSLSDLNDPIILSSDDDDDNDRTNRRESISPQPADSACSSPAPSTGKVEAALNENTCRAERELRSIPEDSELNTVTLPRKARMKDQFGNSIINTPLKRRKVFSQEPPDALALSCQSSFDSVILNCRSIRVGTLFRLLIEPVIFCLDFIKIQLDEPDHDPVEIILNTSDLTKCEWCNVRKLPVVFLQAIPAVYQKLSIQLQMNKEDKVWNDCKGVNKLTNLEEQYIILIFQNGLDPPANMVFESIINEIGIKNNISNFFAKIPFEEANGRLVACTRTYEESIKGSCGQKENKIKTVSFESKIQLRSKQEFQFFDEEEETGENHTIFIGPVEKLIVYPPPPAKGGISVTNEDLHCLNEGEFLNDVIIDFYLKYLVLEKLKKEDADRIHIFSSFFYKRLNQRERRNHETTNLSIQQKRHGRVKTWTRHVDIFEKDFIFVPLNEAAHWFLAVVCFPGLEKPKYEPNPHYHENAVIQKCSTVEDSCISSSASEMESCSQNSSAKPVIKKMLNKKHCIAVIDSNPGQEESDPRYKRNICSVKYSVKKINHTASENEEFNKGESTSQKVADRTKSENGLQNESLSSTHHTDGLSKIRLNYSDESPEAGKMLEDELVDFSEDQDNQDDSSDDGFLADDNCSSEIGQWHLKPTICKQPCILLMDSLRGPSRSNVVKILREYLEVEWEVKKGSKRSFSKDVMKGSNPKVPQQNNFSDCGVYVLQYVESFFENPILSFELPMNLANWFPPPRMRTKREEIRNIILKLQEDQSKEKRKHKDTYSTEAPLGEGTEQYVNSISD

[3] = target: T1, Sentrin-specific protease 6; assay: SENP6 protease inhibitors, SAR follow-up, biochemical, luminescence, set 2 (AID 588598)
[4] = target: T2, Sentrin-specific protease 8 (Homo sapiens, UniProt Q96LD8); assay: SENP8 protease inhibitors, SAR follow-up, biochemical, luminescence, set 2 (AID 588601)
T2 sequence (Q96LD8 whole entry): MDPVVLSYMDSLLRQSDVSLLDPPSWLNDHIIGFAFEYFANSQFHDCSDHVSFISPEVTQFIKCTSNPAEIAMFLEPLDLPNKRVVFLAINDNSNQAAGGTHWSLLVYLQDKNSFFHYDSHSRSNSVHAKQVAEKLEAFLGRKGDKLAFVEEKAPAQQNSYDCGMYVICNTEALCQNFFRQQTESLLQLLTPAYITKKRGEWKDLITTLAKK

Caspase-3 [5] = target: T3, Caspase-3 (Homo sapiens, UniProt P42574); assay: SAR Analysis of small molecule inhibitors of Sentrin-specific proteases (SENPs) using a Caspase-3 Selectivity assay. [Related pubchem assays (depositor defined):AID2540, AID2599, AID434973, AID489001]
T3 sequence (P42574 whole entry): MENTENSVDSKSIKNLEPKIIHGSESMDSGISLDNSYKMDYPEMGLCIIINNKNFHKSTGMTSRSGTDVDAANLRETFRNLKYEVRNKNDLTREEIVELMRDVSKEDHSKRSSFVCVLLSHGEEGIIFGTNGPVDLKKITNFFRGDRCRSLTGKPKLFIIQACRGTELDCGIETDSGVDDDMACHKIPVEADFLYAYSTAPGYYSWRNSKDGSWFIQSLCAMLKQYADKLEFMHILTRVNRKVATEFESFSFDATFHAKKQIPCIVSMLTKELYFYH

[6] = target: T4, Sentrin-specific protease 7 (Homo sapiens, UniProt Q9BQF6); assay: SENP7 protease inhibitors, SAR follow-up, biochemical, luminescence (AID 504497)
T4 sequence (Q9BQF6 whole entry): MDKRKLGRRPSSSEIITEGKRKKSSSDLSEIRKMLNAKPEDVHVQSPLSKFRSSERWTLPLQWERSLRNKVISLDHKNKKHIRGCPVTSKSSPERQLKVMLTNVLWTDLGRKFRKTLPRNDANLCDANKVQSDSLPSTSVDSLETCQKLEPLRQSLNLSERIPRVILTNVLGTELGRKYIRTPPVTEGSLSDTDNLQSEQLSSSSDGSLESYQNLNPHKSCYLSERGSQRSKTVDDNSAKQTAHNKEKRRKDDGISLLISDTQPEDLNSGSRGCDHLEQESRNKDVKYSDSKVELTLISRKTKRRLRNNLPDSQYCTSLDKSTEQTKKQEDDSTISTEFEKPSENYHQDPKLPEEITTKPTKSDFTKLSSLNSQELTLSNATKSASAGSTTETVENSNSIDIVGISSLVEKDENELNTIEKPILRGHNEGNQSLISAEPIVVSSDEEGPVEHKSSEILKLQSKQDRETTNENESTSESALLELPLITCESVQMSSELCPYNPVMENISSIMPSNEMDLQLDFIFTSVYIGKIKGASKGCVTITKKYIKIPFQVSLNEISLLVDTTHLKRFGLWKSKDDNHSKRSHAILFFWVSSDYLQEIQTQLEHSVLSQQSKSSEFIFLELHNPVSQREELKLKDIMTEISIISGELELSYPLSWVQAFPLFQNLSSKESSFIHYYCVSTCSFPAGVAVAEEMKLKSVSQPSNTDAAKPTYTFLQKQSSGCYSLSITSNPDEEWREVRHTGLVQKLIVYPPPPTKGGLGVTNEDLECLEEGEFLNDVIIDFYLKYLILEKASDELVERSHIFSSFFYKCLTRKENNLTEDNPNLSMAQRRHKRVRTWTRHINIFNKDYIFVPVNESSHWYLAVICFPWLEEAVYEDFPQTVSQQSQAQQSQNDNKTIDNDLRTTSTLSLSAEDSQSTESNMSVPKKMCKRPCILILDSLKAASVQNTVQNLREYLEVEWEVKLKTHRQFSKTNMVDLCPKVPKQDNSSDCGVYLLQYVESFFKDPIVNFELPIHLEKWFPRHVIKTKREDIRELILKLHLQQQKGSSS

Caspase-3 [7] = target: T3, Caspase-3; assay: caspase-3 inhibitors as off-family protease, SAR follow-up, selectivity assay for SENP protease inhibitor project, biochemical, luminescence, set 2 (AID 588599)
[8] = target: T4, Sentrin-specific protease 7; assay: SENP7 protease inhibitors, SAR follow-up, biochemical, luminescence, set 2 (AID 588600)
[9] = target: T2, Sentrin-specific protease 8; assay: SENP8 protease inhibitors, SAR follow-up, biochemical, luminescence (AID 504501)
[10] = (§1) Counterscreen for antagonists of the orexin 1 receptor (OX1R; HCRTR1): Fluorescence-based cell-based high throughput dose response assay to identify antagonists of the parental CHO cell line. [Related pubchem assays (depositor defined):AID434989, AID435008, AID463079, AID485270, AID492963, AID492964, AID492965, AID493232, AID504699, AID504701]
Orexin receptor type 2 [11] = target: T5, Orexin receptor type 2 (Homo sapiens, UniProt O43614); assay: Counterscreen assay for antagonists of the orexin 1 receptor (OX1R; HCRTR1): Fluorescence-based cell-based dose response assay for antagonists of the orexin 2 receptor (OX2R; HCRTR2), run by assay provider.
T5 sequence (O43614 whole entry): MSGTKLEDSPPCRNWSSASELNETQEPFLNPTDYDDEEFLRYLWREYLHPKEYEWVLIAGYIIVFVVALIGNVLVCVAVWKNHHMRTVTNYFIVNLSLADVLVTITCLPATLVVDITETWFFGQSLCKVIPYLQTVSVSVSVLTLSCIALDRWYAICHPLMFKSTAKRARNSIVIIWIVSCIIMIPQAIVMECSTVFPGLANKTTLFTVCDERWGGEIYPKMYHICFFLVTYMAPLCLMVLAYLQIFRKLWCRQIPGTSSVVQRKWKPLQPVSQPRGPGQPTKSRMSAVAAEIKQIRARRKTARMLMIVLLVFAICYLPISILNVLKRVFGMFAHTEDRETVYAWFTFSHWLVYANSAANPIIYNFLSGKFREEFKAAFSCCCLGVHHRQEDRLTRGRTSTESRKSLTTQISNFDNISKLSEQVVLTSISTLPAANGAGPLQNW

CHO-K1 = assay: as §1, with “Homogeneous time resolved fluorescence (HTRF)-based” for “Fluorescence-based”, “cell-based” for “cell-based high throughput”, “CHO-K1” for “CHO”; settings: Cricetulus griseus;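 note: potency for inhibition of ATP-stimulated IP1 production as antagonists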
[12] = target: T6, Orexin/Hypocretin receptor type 1 (Homo sapiens, UniProt O43613); assay: Homogeneous Time Resolved Fluorescence (HTRF)-based cell-based high throughput dose response assay for antagonists of the orexin 1 receptor (OX1R; HCRTR1). [Related pubchem assays (depositor defined):AID434989, AID435008, AID463079, AID485270, AID492963, AID492964, AID492965, AID493232, AID504717, AID504718]
T6 sequence (O43613 whole entry): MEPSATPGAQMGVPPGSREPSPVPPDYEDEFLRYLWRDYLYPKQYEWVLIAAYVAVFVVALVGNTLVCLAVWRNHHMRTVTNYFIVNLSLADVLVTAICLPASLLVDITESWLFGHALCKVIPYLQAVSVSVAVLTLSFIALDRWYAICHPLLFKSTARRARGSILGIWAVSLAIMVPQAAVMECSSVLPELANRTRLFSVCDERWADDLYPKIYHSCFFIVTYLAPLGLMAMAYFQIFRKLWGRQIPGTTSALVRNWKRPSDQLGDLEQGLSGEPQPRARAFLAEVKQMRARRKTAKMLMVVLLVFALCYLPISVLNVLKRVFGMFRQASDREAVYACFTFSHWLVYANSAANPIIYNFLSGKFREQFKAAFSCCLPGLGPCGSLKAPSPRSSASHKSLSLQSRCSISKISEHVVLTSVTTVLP

[13] = target: T6, Orexin/Hypocretin receptor type 1; assay: Fluorescence-based cell-based high throughput dose response assay for antagonists of the orexin 1 receptor (OX1R; HCRTR1). [Related pubchem assays (depositor defined):AID434989, AID435008, AID463079, AID485270, AID492963, AID492964, AID492965, AID493232, AID504717, AID504718]
Orexin receptor type 2 [14] = target: T5, Orexin receptor type 2; assay: Counterscreen assay for antagonists of the orexin 1 receptor (OX1R; HCRTR1): Homogeneous Time Resolved Fluorescence (HTRF)-based cell-based dose response assay for antagonists of the orexin 2 receptor (OX2R; HCRTR2), run by assay provider.

Structure (SMILES): Sc1nnc(-c2ccc3ccccc3n2)n1-c1cc(Cl)cc(Cl)c1
IC50 [1]: > 64.6 µM (inactive)
IC50 (Melanocortin receptor 4): > 64.6 µM (inactive)

IC50 [2]: 2.8 µM (active)
IC50 [3]: 23.4 µM (active)
IC50 (Caspase-3 [5]): 3.6 µM (active)
IC50 [6]: 1.8 µM (active)
IC50 (Caspase-3 [7]): 34 µM (active)
IC50 [8]: 19.2 µM (active)
Structure (SMILES): Cc1csc(C(=O)Nc2nc3ccccc3s2)c1
IC50 [4]: 21.4 µM (active)
IC50 [9]: 3.2 µM (active)

Structure (SMILES): CCN(CC)c1ccc(NC(=O)c2cc3ccccc3o2)c(C)c1
IC50 [10]: > 49.8 µM (inactive)
IC50 (Orexin receptor type 2 [11]): > 88.8 µM (inactive)
IC50 (CHO-K1): > 66.2 µM (inactive)
IC50 [12]: 2.43 µM (active)
IC50 [13]: > 49.8 µM (inactive)
IC50 (Orexin receptor type 2 [14]): > 50 µM (inactive)

Structure (SMILES): Cc1cc(C(=O)COc2cc(F)ccc2[N+](=O)[O-])c(C)n1CC1CCCO1 (stereo not drawn)
IC50 [1]: > 64.6 µM (inactive)
IC50 (Melanocortin receptor 4): > 64.6 µM (inactive)
